# Source: US11357779B2 (G1 Therapeutics, Inc., priority 2018, dated 2022)
# Read-outs that look alike come from different tables or passages of the source.
# Assay: Plasma concentration versus time of Compound I and metabolite Compound III in patients dosed QD or BID with Form B of Compound II plus fulvestrant
# Format: in vivo, human
# Conditions: human, plasma, oral
# Source text: Patients were enrolled into 1 of 2 parallel, independently operating, dose-escalation dosing cohorts with Form B of Compound II administered continuously either once daily (QD) or twice daily (BID) with food with fixed-dose fulvestrant (intramuscularly every 14 days for the first three injections and then every 28 days). Pre- or perimenopausal patients also received goserelin for the duration of study treatment. A […] agonist was started at least 28 days before the first dose of Form B, and those patients who were taking another LHRH agonist were switched to goserelin on Day 1. Patients were split into […] cohorts providing once a day (QD) dosing of 200 mg, 300 mg, 400 mg, 500 mg, or 650 mg of Form B, or twice a day (BID) dosing of 100 mg, 150 mg, or 200 mg of Form B. The second dose in BID cohorts was not administered in the evening until at least 12 hours after the initial morning dose of Form B. The dosing cohorts for Form B of Compound II are provided in Table 1.
# Blood samples were collected at the following time points relative to the morning dose of Form B at Day 1 and at Day 29: pre-dose (0 hour) and 1, 2, 3, 4, 6, 8, 10, 12 (prior to the evening dose in the BID cohorts), and 24 (prior to the next day's morning dose) hours after dosing. A 5-minute time window was allowed for samples collected between the predose and 3 hours after Form B dosing. A 15-minute window was allowed for samples collected between 4 to 12 hours after Form B dosing. A 1-hour window was allowed for the sample collected 24 hours after Form B dosing. Blood samples for Compound I PK trough levels were collected pre-dose at Day 8, Day 15, and Day 22 prior to the morning administration of Compound I. Plasma concentrations of Compound I and its metabolite, Compound III, were measured using validated methods.
# Analysis of plasma concentration versus time data for calculation of standard pharmacokinetic (PK) parameters following oral administration was conducted using Phoenix WinNonlin version 6.3 using actual blood sampling times.
structure (smiles),measurement,setting,value
"CC(C)N1CCN(c2ccc(Nc3ncc4cc5n(c4n3)C3(CCCCC3)CNC5=O)nc2)CC1 [Compound I, 2′-((5-(4-isopropylpiperazin-1-yl)pyridin-2-yl)amino)-7′,8′-dihydro-6′H-spiro[cyclohexane-1,9′-pyrazino[1′,2′:1,5]pyrrolo[2,3-d]pyrimidin]-6′-one]",concentration at 3 h,"200 mg, 200 mg QD of Form B, Day 29, 3.0 h, Median, read-out: Compound I Concentration",11.8 ng/mL
same,concentration at 4 h,"200 mg, 200 mg QD of Form B, Day 29, 4.0 h, Mean, read-out: Compound I Concentration",17.5 ng/mL
same,concentration at 4 h,"200 mg, 200 mg QD of Form B, Day 29, 4.0 h, Median, read-out: Compound I Concentration",18.8 ng/mL
same,concentration at 6 h,"200 mg, 200 mg QD of Form B, Day 29, 6.0 h, Mean, read-out: Compound I Concentration",18.5 ng/mL
same,concentration at 6 h,"200 mg, 200 mg QD of Form B, Day 29, 6.0 h, Median, read-out: Compound I Concentration",17.9 ng/mL
same,concentration at 8 h,"200 mg, 200 mg QD of Form B, Day 29, 8.0 h, Mean, read-out: Compound I Concentration",14.6 ng/mL
same,concentration at 8 h,"200 mg, 200 mg QD of Form B, Day 29, 8.0 h, Median, read-out: Compound I Concentration",12.1 ng/mL
same,concentration at 10 h,"200 mg, 200 mg QD of Form B, Day 29, 10.0 h, Mean, read-out: Compound I Concentration",11.1 ng/mL
same,concentration at 10 h,"200 mg, 200 mg QD of Form B, Day 29, 10.0 h, Median, read-out: Compound I Concentration",8.7 ng/mL
same,concentration at 12 h,"200 mg, 200 mg QD of Form B, Day 29, 12.0 h, Mean, read-out: Compound I Concentration",8.46 ng/mL
same,concentration at 12 h,"200 mg, 200 mg QD of Form B, Day 29, 12.0 h, Median, read-out: Compound I Concentration",8.32 ng/mL
same,concentration at 24 h,"200 mg, 200 mg QD of Form B, Day 29, […], Mean, read-out: Compound I Concentration",6.01 ng/mL
same,concentration at 24 h,"200 mg, 200 mg QD of Form B, Day 29, […], Median, read-out: Compound I Concentration",4.9 ng/mL
same,concentration at 0 h,"200 mg, Cohort 8, 200 mg BID of Form B, Day 29, 0.0 h, read-out: Compound I Concentration, Mean",9.74 ng/mL
same,concentration at 0 h,"200 mg, Cohort 8, 200 mg BID of Form B, Day 29, 0.0 h, read-out: Compound I Concentration, Min",5.47 ng/mL
same,concentration at 1 h,"200 mg, Cohort 8, 200 mg BID of Form B, Day 29, 1.0 h, read-out: Compound I Concentration, Mean",9.23 ng/mL
same,concentration at 1 h,"200 mg, Cohort 8, 200 mg BID of Form B, Day 29, 1.0 h, read-out: Compound I Concentration, Min",5.1 ng/mL
same,concentration at 2 h,"200 mg, Cohort 8, 200 mg BID of Form B, Day 29, 2.0 h, read-out: Compound I Concentration, Mean",12 ng/mL
same,concentration at 2 h,"200 mg, Cohort 8, 200 mg BID of Form B, Day 29, 2.0 h, read-out: Compound I Concentration, Min",5.56 ng/mL
same,concentration at 3 h,"200 mg, Cohort 8, 200 mg BID of Form B, Day 29, 3.0 h, read-out: Compound I Concentration, Mean",15.2 ng/mL
same,concentration at 3 h,"200 mg, Cohort 8, 200 mg BID of Form B, Day 29, 3.0 h, read-out: Compound I Concentration, Min",7.49 ng/mL
same,concentration at 4 h,"200 mg, Cohort 8, 200 mg BID of Form B, Day 29, 4.0 h, read-out: Compound I Concentration, Mean",21.1 ng/mL
same,concentration at 4 h,"200 mg, Cohort 8, 200 mg BID of Form B, Day 29, 4.0 h, read-out: Compound I Concentration, Min",7.69 ng/mL
same,concentration at 6 h,"200 mg, Cohort 8, 200 mg BID of Form B, Day 29, 6.0 h, read-out: Compound I Concentration, Max",28.1 ng/mL
same,concentration at 6 h,"200 mg, Cohort 8, 200 mg BID of Form B, Day 29, 6.0 h, read-out: Compound I Concentration, Mean",19 ng/mL
same,concentration at 6 h,"200 mg, Cohort 8, 200 mg BID of Form B, Day 29, 6.0 h, read-out: Compound I Concentration, Min",7.6 ng/mL
same,concentration at 8 h,"200 mg, Cohort 8, 200 mg BID of Form B, Day 29, 8.0 h, read-out: Compound I Concentration, Max",21.7 ng/mL
same,concentration at 8 h,"200 mg, Cohort 8, 200 mg BID of Form B, Day 29, 8.0 h, read-out: Compound I Concentration, Mean",14.6 ng/mL
same,concentration at 8 h,"200 mg, Cohort 8, 200 mg BID of Form B, Day 29, 8.0 h, read-out: Compound I Concentration, Min",7.36 ng/mL
same,concentration at 10 h,"200 mg, Cohort 8, 200 mg BID of Form B, Day 29, 10.0 h, read-out: Compound I Concentration, Max",38.6 ng/mL
same,concentration at 10 h,"200 mg, Cohort 8, 200 mg BID of Form B, Day 29, 10.0 h, read-out: Compound I Concentration, Mean",18.6 ng/mL
same,concentration at 10 h,"200 mg, Cohort 8, 200 mg BID of Form B, Day 29, 10.0 h, read-out: Compound I Concentration, Min",5.61 ng/mL
same,concentration at 12 h,"200 mg, Cohort 8, 200 mg BID of Form B, Day 29, 12.0 h, read-out: Compound I Concentration, Max",40.8 ng/mL
same,concentration at 12 h,"200 mg, Cohort 8, 200 mg BID of Form B, Day 29, 12.0 h, read-out: Compound I Concentration, Mean",19.8 ng/mL
same,concentration at 12 h,"200 mg, Cohort 8, 200 mg BID of Form B, Day 29, 12.0 h, read-out: Compound I Concentration, Min",6.32 ng/mL
same,concentration at 0 h,"300 mg, 300 mg QD of Form B, Day 1, 0.0 h, Mean, read-out: Compound I Concentration",0 ng/mL
same,concentration at 0 h,"300 mg, 300 mg QD of Form B, Day 1, 0.0 h, Median, read-out: Compound I Concentration",0 ng/mL
same,concentration at 1 h,"300 mg, 300 mg QD of Form B, Day 1, 1.0 h, Mean, read-out: Compound I Concentration",22.9 ng/mL
same,concentration at 1 h,"300 mg, 300 mg QD of Form B, Day 1, 1.0 h, Median, read-out: Compound I Concentration",3.73 ng/mL
same,concentration at 2 h,"300 mg, 300 mg QD of Form B, Day 1, 2.0 h, Mean, read-out: Compound I Concentration",16.9 ng/mL
same,concentration at 2 h,"300 mg, 300 mg QD of Form B, Day 1, 2.0 h, Median, read-out: Compound I Concentration",5.96 ng/mL
same,concentration at 3 h,"300 mg, 300 mg QD of Form B, Day 1, 3.0 h, Mean, read-out: Compound I Concentration",27.1 ng/mL
same,concentration at 3 h,"300 mg, 300 mg QD of Form B, Day 1, 3.0 h, Median, read-out: Compound I Concentration",13.4 ng/mL
same,concentration at 4 h,"300 mg, 300 mg QD of Form B, Day 1, 4.0 h, Mean, read-out: Compound I Concentration",32 ng/mL
same,concentration at 4 h,"300 mg, 300 mg QD of Form B, Day 1, 4.0 h, Median, read-out: Compound I Concentration",19.8 ng/mL
same,concentration at 6 h,"300 mg, 300 mg QD of Form B, Day 1, 6.0 h, Mean, read-out: Compound I Concentration",31.6 ng/mL
same,concentration at 6 h,"300 mg, 300 mg QD of Form B, Day 1, 6.0 h, Median, read-out: Compound I Concentration",43.1 ng/mL
same,concentration at 8 h,"300 mg, 300 mg QD of Form B, Day 1, 8.0 h, Mean, read-out: Compound I Concentration",22.7 ng/mL
same,concentration at 8 h,"300 mg, 300 mg QD of Form B, Day 1, 8.0 h, Median, read-out: Compound I Concentration",28.1 ng/mL
same,concentration at 10 h,"300 mg, 300 mg QD of Form B, Day 1, 10.0 h, Mean, read-out: Compound I Concentration",19.9 ng/mL
same,concentration at 10 h,"300 mg, 300 mg QD of Form B, Day 1, 10.0 h, Median, read-out: Compound I Concentration",18.1 ng/mL
same,concentration at 12 h,"300 mg, 300 mg QD of Form B, Day 1, 12.0 h, Mean, read-out: Compound I Concentration",15.5 ng/mL
same,concentration at 12 h,"300 mg, 300 mg QD of Form B, Day 1, 12.0 h, Median, read-out: Compound I Concentration",13.5 ng/mL
same,concentration at 24 h,"300 mg, 300 mg QD of Form B, Day 1, […], Mean, read-out: Compound I Concentration",8.09 ng/mL
same,concentration at 24 h,"300 mg, 300 mg QD of Form B, Day 1, […], Median, read-out: Compound I Concentration",8.48 ng/mL
same,concentration at 0 h,"300 mg, 300 mg QD of Form B, Day 29, 0.0 h, Mean, read-out: Compound I Concentration",13.9 ng/mL
same,concentration at 0 h,"300 mg, 300 mg QD of Form B, Day 29, 0.0 h, Median, read-out: Compound I Concentration",8.24 ng/mL
same,concentration at 1 h,"300 mg, 300 mg QD of Form B, Day 29, 1.0 h, Mean, read-out: Compound I Concentration",16.2 ng/mL
